These results are taken from patent US9856270B2, “Dolutegravir salts” (Ratiopharm GmbH, priority 2013, dated 2018).

Structures can show the parent of a compound that is named as a salt.

Common to all, as to format: physicochemical
The nature of data set [1]: Determination of the dissolution, 2nd experiment (approx. 210 mg in 3 ml solvent, 37° C., approx. 250 rpm, HPLC/UV). As for the experimental part: (§1) In the following examples, anhydrous Dolutegravir Na as disclosed in WO2010068253 is employed.
Approx. 210 mg test substance was weighed into a glass vial, followed by addition of 3 ml solvent. A stirring bar was added, the vial was fixed in a water bath at 37° C. and the suspension was stirred with approx. 250 rpm. After 5, 15 and 60 min, samples were withdrawn, filtered through a 0.2 μm disposable filter, 50 μl of the clear filtrate were diluted with 950 μl DMSO and 2 μl thereof were analyzed by HPLC/UV.
(§2) HPLC/UV-Method for Quantification of Dolutegravir • Instrument: Agilent 1200 (G3324) • Method: DOLUTEGRAVIR-SOL-G3324.M • Column: YMC Triart C18, 100*3.0 mm, 3.0μ • Flow: 0.6 ml/min. • Temperature: 40.0° C. • Eluent • A: acetonitrile • B: 0.2% formic acid+0.1% Heptafluorobutyric acid (HFBA)
(§3) A calibration curve was established by linear regression analysis of concentration/peak area data pairs obtained by twofold analysis of a set of calibration solutions containing dolutegravir at concentrations between 10 μg/ml and 1,000 μg/ml. In case that the peak area of dolutegravir in an analyzed sample exceeded the upper limit of the calibration range, the sample was diluted and re-analyzed.

Data set [2] can be described thus: Storage stability of solid state forms (polymorphic conversion, XRPD).
Data set [3] in a line: Determination of the dissolution, 1st experiment (approx. 350 mg in 5 ml solvent, 37° C., approx. 500 rpm, HPLC/UV). The conditions noted are these: for concentration: 37° C. The protocol:
as §1
Approx. 350 mg test substance was weighed into a glass vial, followed by addition of 5 ml solvent. A stirring bar was added, the vial was fixed in a water bath at 37° C. and the suspension was stirred with approx. 500 rpm. After 1 h and 24 h, samples were withdrawn, filtered through a 0.2 μm disposable filter, 50 μl of the clear filtrate were diluted with 950 μl DMSO and 2 μl thereof were analyzed by HPLC/UV.
as §2, §3

Data set [4] is described as follows: Dissolution profile of tablet formulations (900 ml 0.1 N HCl, paddle, 100 rpm, 37° C.). The conditions noted are these: tablets, FIG. 24. The protocol: The dissolution profile of the above potassium salt formulation in 900 ml of 0.1 N HCl, paddle (no sinker) at 100 rpm, 37° C. was tested. An aqueous solution comprising Pharmacoat 603 was prepared. The active, Granulac 200, SDS, Avicel PH 101 and Ac-Di-Sol were granulated with the before prepared solution. The obtained granules were sieved through 1650 μm mesh size and subsequently dried at 40° C. After sieving the dried granules through 630 μm mesh size, Prosolv and Ac-Di-Sol were added. The mixture was blended for 10 minutes in a Turbula […] tumble mixer. After addition of Magnesium stearate, blending was continued for 3 minutes. Finally, the blend was compressed into tablets on an eccentric press Ek0 with a 9 mm tablet punch. The dissolution profile of the above sodium salt formulation in 900 ml of 0.1 N HCl, paddle (no sinker) at 100 rpm, 37° C. was tested.

The mark [5] stands for this setting: solvent 50 mM KH2PO4, pH 6.8, 5 min, potassium salt.
[6] abbreviates: solvent 50 mM KH2PO4, pH 6.8, 15 min, potassium salt.
[7] abbreviates: solvent 50 mM KH2PO4, pH 6.8, 60 min, potassium salt.
[8] abbreviates: solvent 0.1 N HCl, 5 min, potassium salt.
Setting [9] is: solvent 0.1 N HCl, 15 min, potassium salt.
Where [10] appears, read: solvent 0.1 N HCl, 60 min, potassium salt.
Where [11] appears, read: solvent demineralized water, 5 min, potassium salt.
[12] abbreviates: solvent demineralized water, 15 min, potassium salt.
Setting [13] is: solvent demineralized water, 60 min, potassium salt.

On to `C[C@@H]1CCO[C@H]2Cn3cc(C(=O)NCc4ccc(F)cc4F)c(=O)c(O)c3C(=O)N12` [Dolutegravir-K (amorphous), Dolutegravir potassium salt], for which the concentration was determined as 39100 µg/mL in data set [1] (setting [5]); 40900 µg/mL in data set [1] (setting [6]); 60100 µg/mL in data set [1] (setting [7]); 300 µg/mL in data set [1] (setting [8]); 21260 µg/mL in data set [1] (setting [9]); 15400 µg/mL in data set [1] (setting [10]). Moreover, the figures for the concentration in data set [1] (setting [11]), in data set [1] (setting [12]) and in data set [1] (setting [13]) were 55600 µg/mL, 55100 µg/mL and 62300 µg/mL, respectively. In addition, in data set [2] (40° C./75% RH), the “stable under storage condition (time)” value was “at least 12 weeks”.

With `C[C@@H]1CCO[C@H]2Cn3cc(C(=O)NCc4ccc(F)cc4F)c(=O)c(O)c3C(=O)N12` [Dolutegravir potassium form IV, Dolutegravir potassium salt], in data set [2] (45° C./75% relative humidity), the “stable upon storage (time)” value was “at least 8 weeks”.

Consider `C[C@@H]1CCO[C@H]2Cn3cc(C(=O)NCc4ccc(F)cc4F)c(=O)c(O)c3C(=O)N12` [Dolutegravir-K (Form VII), Dolutegravir potassium salt], for which the concentration in data set [1] (setting [5]) came out at 22000 µg/mL; in data set [1] (setting [6]), 23900 µg/mL; in data set [1] (setting [7]), 23300 µg/mL; in data set [1] (setting [8]), 80 µg/mL; in data set [1] (setting [9]) it was 23780 µg/mL; in data set [1] (setting [10]), 25930 µg/mL. For the same compound, the concentration amounted to 39500 µg/mL in data set [1] (setting [11]), 44000 µg/mL in data set [1] (setting [12]) and 44100 µg/mL in data set [1] (setting [13]). For the same compound, the “stable under storage conditions (time)” value in data set [2] (25° C. and 60% RH, 30° C. and 65% RH and 40° C. and 75% RH) is listed as “at least 8 weeks”.

For the compound `C[C@@H]1CCO[C@H]2Cn3cc(C(=O)NCc4ccc(F)cc4F)c(=O)c(O)c3C(=O)N12` [Dolutegravir-K (Form VI), Dolutegravir potassium salt], the concentration was 21770 µg/mL in data set [3] (solvent 20 mM Sodium acetate (NaAc) pH 4.5, 1 h, potassium salt); 16930 µg/mL in data set [3] (solvent 20 mM Sodium acetate (NaAc) pH 4.5, 24 h, potassium salt); 32580 µg/mL in data set [3] (solvent 50 mM KH2PO4 pH 6.8, 1 h, potassium salt); 33440 µg/mL in data set [3] (solvent 50 mM KH2PO4 pH 6.8, 24 h, potassium salt); 20350 µg/mL in data set [3] (solvent 0.1M HCl pH1.2, 1 h, potassium salt); 20270 µg/mL in data set [3] (solvent 0.1M HCl pH1.2, 24 h, potassium salt).

Turning to `C[C@@H]1CCO[C@H]2Cn3cc(C(=O)NCc4ccc(F)cc4F)c(=O)c(O)c3C(=O)N12` [Dolutegravir potassium salt], in data set [3] (under certain conditions as depicted in Example 9), the “dissolution compared to the sodium salt” value was “improved dissolution”. For the same compound, the “dissolution rate of a pharmaceutical composition compared to the sodium salt” value in data set [4] is “faster and/or higher dissolution rate”.

As to `C[C@@H]1CCO[C@H]2Cn3cc(C(=O)NCc4ccc(F)cc4F)c(=O)c(O)c3C(=O)N12` [Dolutegravir-Na, reference compound], the concentration in data set [3] (solvent 20 mM Sodium acetate (NaAc) pH 4.5, 1 h) was 595 µg/mL; in data set [3] (solvent 20 mM Sodium acetate (NaAc) pH 4.5, 24 h), 634 µg/mL; in data set [3] (solvent 50 mM KH2PO4 pH 6.8, 1 h), 894 µg/mL; in data set [3] (solvent 50 mM KH2PO4 pH 6.8, 24 h) it was 918 µg/mL; in data set [3] (solvent 0.1M HCl pH1.2, 1 h) it was 84 µg/mL; in data set [3] (solvent 0.1M HCl pH1.2, 24 h) it was 412 µg/mL. Also, the concentration in data set [1] (solvent 50 mM KH2PO4, pH 6.8, 5 min) stood at 270 µg/mL; in data set [1] (solvent 50 mM KH2PO4, pH 6.8, 15 min) it was 1190 µg/mL; in data set [1] (solvent 50 mM KH2PO4, pH 6.8, 60 min) it was 1240 µg/mL; in data set [1] (solvent 0.1 N HCl, 5 min, listed as Dolutegravir-Na (anhydrous)), 330 µg/mL; in data set [1] (solvent 0.1 N HCl, 15 min, listed as Dolutegravir-Na (anhydrous)) it was 420 µg/mL; in data set [1] (solvent 0.1 N HCl, 60 min, listed as Dolutegravir-Na (anhydrous)), 400 µg/mL. Further, the concentration in data set [1] (solvent demineralized water, 5 min) worked out at 3300 µg/mL; in data set [1] (solvent demineralized water, 15 min) it was 3430 µg/mL; in data set [1] (solvent demineralized water, 60 min) it was 3500 µg/mL.
